The values that follow come from PubChem BioAssay (NCI).

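Values below derive from 48-hour exposures of cells grown in 96-well plates, with endpoints linearly interpolated between the two concentrations bracketing the appropriate inhibition level. GI50 marks 50% less growth. Definition used: TGI = concentration required for complete inhibition of growth.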

Some test systems named below: HS 578T breast; NCI-H23 lung; BT-549 breast; EKVX NSCLC; NCI-H522 lung; MCF7 breast; NCI-H460 lung; UO-31 renal; MALME-3M melanoma; K-562 leukemia.
Experiment in all cases: inhibition of tumour cell growth, NCI panel, 48 h

As to `COc1ccc2c(c1OC)C(=O)N1C2=Cc2c(cc3c(c2OC)OCO3)CC1N(C)C` (stereo not given), the TGI in the test with HS 578T breast, in the test on NCI-H23 lung, with BT-549 breast, in the test on EKVX NSCLC, with NCI-H522 lung and in the test with MCF7 breast was > 100 µM throughout. Also, the TGI in the test with NCI-H460 lung, in the test on UO-31 renal, in the test on MALME-3M melanoma and with K-562 leukemia was > 100 µM each time.

For the compound `O=C[C@@H](CO)O[C@H](C=O)n1cnc2c(=O)[nH]cnc21`, the TGI stood at 2390 µM in the test on HS 578T breast; 1530 µM with NCI-H23 lung; 2370 µM with BT-549 breast; 1320 µM in the test with EKVX NSCLC; 866 µM with NCI-H522 lung; 409 µM in the test with MCF7 breast. Moreover, the TGI with NCI-H460 lung amounted to 2130 µM; with UO-31 renal it was 1420 µM; in the test on MALME-3M melanoma, 1300 µM; in the test with K-562 leukemia, 496 µM.

Regarding `CC(SCc1ccccc1)C(=O)O` (stereo not given), the TGI in the test on HS 578T breast, in the test on NCI-H23 lung, in the test on BT-549 breast, in the test with EKVX NSCLC, with NCI-H522 lung and with MCF7 breast was > 100 µM in each case. Besides, the TGI with NCI-H460 lung, in the test on UO-31 renal, with MALME-3M melanoma and in the test with K-562 leukemia was > 100 µM throughout.

Take `COc1ccc(S(=O)(=O)N(C(C)=O)c2ccccc2/C=C/c2cc[n+]([O-])cc2)cc1`: the GI50 was 0.404 µM with HS 578T breast; 1.22 µM in the test on NCI-H23 lung; 0.56 µM in the test on BT-549 breast; 1.02 µM in the test with EKVX NSCLC; 0.225 µM in the test on NCI-H522 lung; 0.428 µM in the test with MCF7 breast. In addition, the GI50 in the test on NCI-H460 lung is 0.412 µM; with UO-31 renal, 5.02 µM; with MALME-3M melanoma, 3.77 µM; in the test on K-562 leukemia it was 0.321 µM. Moreover, the TGI in the test on HS 578T breast is > 10 µM; in the test with NCI-H23 lung it was > 10 µM; in the test on BT-549 breast, > 10 µM; with EKVX NSCLC it was > 10 µM; in the test with NCI-H522 lung it was 1.65 µM; in the test with MCF7 breast, > 10 µM. In addition, the TGI in the test on NCI-H460 lung is > 10 µM; in the test with UO-31 renal it was > 10 µM; with MALME-3M melanoma, > 10 µM; in the test on K-562 leukemia, > 3.17 µM.

Regarding `C=C(C)[C@@H]1CC[C@]2(C(=O)NS(=O)(=O)c3ccccc3)CC[C@]3(C)[C@H](CC[C@@H]4[C@@]5(C)CC[C@H](OC(=O)NS(=O)(=O)c6ccccc6)C(C)(C)[C@@H]5CC[C@]43C)[C@@H]12`, the GI50 in the test with HS 578T breast was 1.49 µM; with NCI-H23 lung it was 2.41 µM; with BT-549 breast it was 1.79 µM; in the test on EKVX NSCLC it was 3.17 µM; in the test on NCI-H522 lung it was 2.48 µM; in the test on MCF7 breast, 2.93 µM. Also, the GI50 was 1.49 µM in the test with NCI-H460 lung, 1.49 µM in the test with UO-31 renal, 2.09 µM in the test with MALME-3M melanoma and 1.41 µM with K-562 leukemia. Further, the TGI in the test with HS 578T breast was 10.1 µM; in the test with NCI-H23 lung, 8.51 µM; in the test with BT-549 breast, 6.31 µM; with EKVX NSCLC, 21.9 µM; in the test with NCI-H522 lung, 9.19 µM; with MCF7 breast it was 10.8 µM. For the same compound, the TGI in the test with NCI-H460 lung was determined as 3.26 µM; in the test with UO-31 renal it was 3.04 µM; in the test with MALME-3M melanoma, 5.32 µM; in the test on K-562 leukemia, 17.3 µM.

On to `O=P(O)(O)OCC1OC(n2cnc3c(NCc4ccccc4)ncnc32)C(O)C1O` (stereo not given), for which the GI50 is 1.02 µM in the test on HS 578T breast; 1.97 µM with NCI-H23 lung; 0.473 µM in the test on BT-549 breast; 2.97 µM with EKVX NSCLC; 2.16 µM with NCI-H522 lung; 1.31 µM in the test with MCF7 breast. For the same compound, the GI50 with NCI-H460 lung is 10.6 µM; in the test on UO-31 renal it was 3.38 µM; in the test with MALME-3M melanoma, 6.64 µM; in the test with K-562 leukemia, 2.52 µM. For the same compound, the TGI with HS 578T breast worked out at 6.1 µM; in the test with NCI-H23 lung, 31.4 µM; in the test with BT-549 breast it was 2.49 µM; in the test with EKVX NSCLC, 80.1 µM; in the test on NCI-H522 lung, 11.2 µM; in the test with MCF7 breast, 19.3 µM. Further, the TGI in the test on NCI-H460 lung was > 59.3 µM; in the test on UO-31 renal, 32.4 µM; with MALME-3M melanoma, > 100 µM; in the test on K-562 leukemia, > 100 µM.

`CC1SC(c2ccc(Cl)cc2Cl)N(NC(=O)C(O)c2ccccc2)C1=O` (stereo not given): the GI50 in the test on HS 578T breast is > 100 µM; in the test with NCI-H23 lung it was 64.1 µM; with BT-549 breast, > 100 µM; in the test with EKVX NSCLC, 68.8 µM; in the test with NCI-H522 lung, 41.9 µM; in the test with MCF7 breast it was 57 µM. Also, the GI50 is 47.7 µM in the test on NCI-H460 lung, 48.9 µM in the test with UO-31 renal, 70.3 µM in the test on MALME-3M melanoma and 39.7 µM in the test with K-562 leukemia. For the same compound, the TGI with HS 578T breast, in the test with NCI-H23 lung, with BT-549 breast, with EKVX NSCLC, in the test with NCI-H522 lung and in the test with MCF7 breast was > 100 µM in each case. In addition, the TGI with NCI-H460 lung, with UO-31 renal, in the test with MALME-3M melanoma and with K-562 leukemia was > 100 µM each time.

`C[N+](C)=c1ccc2nc3c(cc(NCCCNc4cc5oc6cc(=[N+](C)C)ccc-6nc5c5ccccc45)c4ccccc43)oc-2c1`: the GI50 was 7.22 µM in the test on HS 578T breast; 1.61 µM in the test with NCI-H23 lung; 5.97 µM in the test with BT-549 breast; 4.77 µM in the test on EKVX NSCLC; 1.5 µM in the test with NCI-H522 lung; 0.885 µM with MCF7 breast. Moreover, the GI50 with NCI-H460 lung is 1.89 µM; in the test with UO-31 renal, 1.75 µM; in the test on MALME-3M melanoma, 2.05 µM; in the test on K-562 leukemia, 1.57 µM. In addition, the TGI is 45.6 µM with HS 578T breast; 5.45 µM with NCI-H23 lung; > 64.3 µM in the test with BT-549 breast; 18.5 µM in the test with EKVX NSCLC; 4.59 µM with NCI-H522 lung; 3.23 µM in the test on MCF7 breast. Moreover, the TGI in the test with NCI-H460 lung is 4.06 µM; in the test with UO-31 renal, 14 µM; in the test on MALME-3M melanoma it was 4.45 µM; in the test with K-562 leukemia it was > 25.5 µM.
